Measured values as given in patent US20140178433A1, “[…] INCREASED ANTIGENIC MASS” (priority 2012, published 2014).

How the values were obtained:
[1] = test system: Leptospira of serogroup Icterohaemorrhagiae; test: Antigenic mass of fermenter culture by antigen Elisa, serogroup Icterohaemorrhagiae; assay type: cell-based, L. interrogans (sensu lato); settings: for antigenic mass: average of days 3-5; for Ag. mass, average of days 4-5, Ag U/10^9 cells/ml: standard BSA, total 105 μg/ml; for Ag. mass, average of days 3-5, Ag U/10^9 cells/ml: EMJH with standard BSA; for relative Ag. mass (%), average of days 4-5: relative to non-supplemented = 100; for Ag U/10^9 cells/ml, at 3 days: different BSA ingredients in EMJH medium, no supplementation
Method: (§1) During all fermentation experiments the temperature was controlled at about 29° C. The medium was aerated with headspace airflow, and the dissolved oxygen (pO2) concentration was controlled by automatic variation of the agitation-rate, to maintain a set pO2 concentration. Temperature, pH and pO2 concentration were monitored online, but pH and foam formation were not controlled.
(§2) Supplementation was done either with pure linoleic acid (Sigma Aldrich, >99% pure) as a 10% v/v stock in absolute ethanol (JT Baker). Alternatively, linoleic acid was supplemented by using a BSA that was created with a high level of linoleic acid (high LA BSA). This high LA BSA was used either to replace a standard BSA in EMJH medium, or was used in addition to BSA in the EMJH medium, in which case it was added as a 25% w/v stock solution in sterile water. The high LA BSA or the pure linoleic acid/ethanol supplements were fed to a fermentor over the course of 4 hours, at 0.1-0.2 ml/hour, until the fermentor culture had received a desired total amount of linoleic acid. Different total available levels of linoleic acid have been tested, of between about 5 and 425 μg/ml in the total volume. The fermenter cultures of Leptospira were supplemented at different cell-densities i.e. at early-, mid- or end phase culture. Typical mid-phase cell density was at about 5×10̂8 cells/ml, which was reached during day 2 of the main incubation. Upon supplementation with linoleic acid from the pure linoleic acid in ethanol stock, sometimes a small decrease in pH was noted, which was corrected by applying some NaOH.
(§3) 2004. Royal Tropical Institute, Amsterdam.
An arbitrary number of antigen units is affixed to the sample, for example: 1000 Units/ml.

[2] = test system: Leptospira from serogroup Australis (serovar Bratislava); test: Antigenic mass of fermenter culture by antigen Elisa, serogroup Australis; assay type: cell-based, L. interrogans (sensu lato)
Method: as §2, §3
(§4) In a next study it was confirmed that the increase in antigenic mass upon supplementation with linoleic acid is a general phenomenon in Leptospira. In several experiments cultures of Leptospira strains from several serogroups were proliferated in fermenters in similar set-ups as before and with a similar supplementation: in EMJH medium with either standard BSA or with high LA BSA; some cultures were further supplemented with 100 μg/ml linoleic acid, from pure linoleic acid in ethanol. Results of analyses of biomass and antigen amount are presented in FIGS. 6-7 (Sejroe), and 8-9 (Grippotyphosa), and are summarised in Table 5.
Similarly, for serogroup Australis (serovar Bratislava), an increase in antigenic mass with 45% was observed; here the low LA BSA medium was used for supplementation.

[3] = test system: Leptospira of serogroup Icterohaemorrhagiae; test: Biomass (total cell count, Petroff-Hausser counting chamber) of fermenter culture, serogroup Icterohaemorrhagiae; assay type: cell-based, L. interrogans (sensu lato)
Method: as §1
as §2, with “Typical mid-phase cell density was at about 5×10̂8 cells/ml, which was reached during day 2 of the main incubation. Upon supplementation with linoleic acid from the pure linoleic acid in ethanol stock, sometimes a small decrease in pH was noted, which was corrected by applying some NaOH.” left out

Leptospira culture = test: Linoleic acid supplementation of a Leptospira culture, serogroup not stated; assay type: cell-based
Method: as §2

[4] = test system: Leptospira from serogroup Grippotyphosa; test: Antigenic mass of fermenter culture by antigen Elisa, serogroup Grippotyphosa; assay type: cell-based, L. interrogans (sensu lato); settings: for Antigenic mass, 2 day average, Ag U/10^9 cells/ml: average of days 4 and 5
Method: as §2, §3, §4
For serogroup Grippotyphosa the scores were averaged over days 4 and 5 of the culture.

[5] = test system: Leptospira from serogroup Sejroe (serovar Hardjo); test: Antigenic mass of fermenter culture by antigen Elisa, serogroup Sejroe; assay type: cell-based, L. interrogans (sensu lato); settings: for Antigenic mass, 2 day average, Ag U/10^9 cells/ml: average of days 5 and 6
Method: as §2, §3, §4
Some increase in biomass was observed after supplementation, but the increase in antigen amount was much higher. The fermenter was run for 6 days, and scores for these experiments were averaged over days 5 and 6 of the culture.

[6] = 100 μg/ml added, total 125 μg/ml, relative to high LA BSA culture = 100
[7] = 100 μg/ml pure linoleic acid in ethanol added to high LA BSA medium, C18:2 total 125 μg/ml
[8] = EMJH with high LA BSA, C18:2 total 25 μg/ml
[9] = EMJH with high LA BSA, C18:2 total 25 μg/ml, serves as reference = 100

CCCCCC=CCC=CCCCCCCCC(=O)O [linoleic acid, 9,12-octadecadienoic acid]
antigenic mass ([1]; 100 μg/ml pure linoleic acid in ethanol added on day 2 (mid-exponential), EMJH with high LA BSA): 1767 Ag. U/1×10̂9 cells
Ag. mass, average of days 4-5, Ag U/10^9 cells/ml ([1]; 100 μg/ml pure linoleic acid in ethanol supplemented at 1 × 10^8 cells/ml (early phase)): 1783 Ag U/10^9 cells/ml
Ag. mass, average of days 4-5, Ag U/10^9 cells/ml ([1]; 100 μg/ml pure linoleic acid in ethanol supplemented at 5 × 10^8 cells/ml (mid phase)): 1564 Ag U/10^9 cells/ml
Ag. mass, average of days 4-5, Ag U/10^9 cells/ml ([1]; 100 μg/ml pure linoleic acid in ethanol supplemented at 9 × 10^8 cells/ml (late phase)): 1656 Ag U/10^9 cells/ml
increase in antigenic mass after supplementation at different phases ([1]; 100 μg/ml, early-, mid-, late exponential phase, sampling at 2, 4 and 8 hours after the suppletion): acute increase in antigenic mass can be induced at all phases of the Leptospira culture
increase of the antigenic mass ([1]; 200 μg/ml pure linoleic acid in ethanol, EMJH with high LA BSA): slightly less increase of the antigenic mass compared to that of the 100 μg/ml group
increase of the antigenic mass ([1]; exemplary increase following application of the method (linoleic acid supplementation)): 121%
Ag. mass, average of days 3-5, Ag U/10^9 cells/ml ([1]; supplemented 75 μg/ml in mid-exponential phase, C18:2 total 80 μg/ml): 1450 Ag U/10^9 cells/ml
relative Ag. mass (%), average of days 3-5 ([1]; supplemented 75 μg/ml, C18:2 total 80 μg/ml, relative to non-supplemented culture with standard BSA = 100): 199%
Ag. mass, average of days 3-5, Ag U/10^9 cells/ml ([1]; supplemented 150 μg/ml in mid-exponential phase, C18:2 total 155 μg/ml): 1550 Ag U/10^9 cells/ml
relative Ag. mass (%), average of days 3-5 ([1]; supplemented 150 μg/ml, C18:2 total 155 μg/ml, relative to non-supplemented culture with standard BSA = 100): 213%
relative Ag. mass (%), average of days 4-5 ([1]; supplemented at 1 × 10^8 cells/ml, 100 μg/ml): 226%
relative Ag. mass (%), average of days 4-5 ([1]; supplemented at 5 × 10^8 cells/ml, 100 μg/ml): 198%
relative Ag. mass (%), average of days 4-5 ([1]; supplemented at 9 × 10^8 cells/ml, 100 μg/ml): 210%
relative Ag. mass (%) ([2]; 100 μg/ml added, total 105 μg/ml, relative to non-supplemented culture = 100): 145%
Antigenic mass, 2 day average, Ag U/10^9 cells/ml ([2]; 100 μg/ml pure linoleic acid added to low LA BSA medium, C18:2 total 105 μg/ml): 12822 Ag U/10^9 cells/ml
increase of the antigenic mass ([2]; supplementation of low LA BSA medium): 45%
toxicity for the bacteria (cell numbers decreased rapidly after supplementation) ([3]; 400 μg/ml pure linoleic acid in ethanol, EMJH with high LA BSA): induced toxicity
increase of the antigenic mass (Leptospira culture; 25 μg linoleic acid available per ml of culture compared to about 5 μg/ml): significant increase of the antigenic mass
toxicity (Leptospira culture; highest availability level tested, 425 μg/ml, preparation of pure linoleic acid): some toxicity was noticeable for some serovars
relative Ag. mass (%) [4, 6]: 163%
Antigenic mass, 2 day average, Ag U/10^9 cells/ml [4, 7]: 8286 Ag U/10^9 cells/ml
increase of the antigenic mass ([4]; supplementation with linoleic acid (100 μg/ml) of high LA BSA medium): 63%
relative Ag. mass (%) [5, 6]: 284%
Antigenic mass, 2 day average, Ag U/10^9 cells/ml [5, 7]: 814 Ag U/10^9 cells/ml
increase of the antigenic mass ([5]; supplementation with 100 μg/ml linoleic acid of high LA BSA culture medium): 184%

BSA, BovoLep ®: BSA (Bovogen, Australia) recommended for Leptospira culture; standard BSA enriched with a number of vegetable fatty acids
effect on antigenic mass ([1]; BSA ingredient in EMJH medium): no significant effect
Ag U/10^9 cells/ml, at 3 days [1]: 498 Ag U/10^9 cells/ml
effect on biomass of Leptospira ([3]; BSA ingredient in EMJH medium): did increase the biomass

high LA BSA: BSA that was created with a high level of linoleic acid
increase of antigenic mass ([1]; 25 instead of 5 μg/ml linoleic acid available): 124%
antigenic mass ([1]; high LA BSA at 1% w/v in EMJH, 25 μg/ml linoleic acid available): 1636 Ag U/1×10̂9 cells
Ag. mass, average of days 3-5, Ag U/10^9 cells/ml ([1]; supplemented 50 μg/ml linoleic acid as high LA BSA solution, C18:2 total 55 μg/ml): 1612 Ag U/10^9 cells/ml
relative Ag. mass (%), average of days 3-5 ([1]; supplemented 50 μg/ml linoleic acid as high LA BSA, C18:2 total 55 μg/ml, relative to non-supplemented culture = 100): 221%
Antigenic mass, 2 day average, Ag U/10^9 cells/ml [4, 8]: 5074 Ag U/10^9 cells/ml
relative Ag. mass (%) [4, 9]: 100%
Antigenic mass, 2 day average, Ag U/10^9 cells/ml [5, 8]: 287 Ag U/10^9 cells/ml
relative Ag. mass (%) [5, 9]: 100%

BSA, Millipore: a standard commercial BSA (Millipore)
Ag U/10^9 cells/ml, at 3 days [1]: 525 Ag U/10^9 cells/ml

BSA, BovoStar ®: a standard all-purpose BSA from the same manufacturer (Bovogen)
Ag U/10^9 cells/ml, at 3 days [1]: 533 Ag U/10^9 cells/ml
